Measurements reported in US10201586B2 (dated 2019).
Where a SMILES comes first, the peptide text is derived from it.

Biological target: TFPI (Homo sapiens, UniProt P10646)
Assay: IC50 [nM]

Chain of TFPI (P10646 29-304 limits assumed): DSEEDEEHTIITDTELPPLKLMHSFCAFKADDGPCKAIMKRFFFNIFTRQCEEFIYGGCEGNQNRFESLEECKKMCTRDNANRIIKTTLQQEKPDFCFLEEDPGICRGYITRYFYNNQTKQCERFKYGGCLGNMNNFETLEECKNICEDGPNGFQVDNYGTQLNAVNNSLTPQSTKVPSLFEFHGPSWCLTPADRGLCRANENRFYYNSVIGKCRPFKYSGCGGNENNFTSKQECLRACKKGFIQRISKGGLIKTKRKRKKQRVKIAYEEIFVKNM

IC50 [µM]	Compound
13.8	CSCC[C@H](NC(=O)[C@H](CCC(=O)O)NC(=O)[C@H](CCCCN)NC(=O)[C@H](CO)NC(=O)[C@H](CCCNC(=N)N)NC(=O)[C@H](CCCCN)NC(=O)[C@H](CO)NC(=O)[C@@H](NC(=O)[C@H](Cc1c[nH]cn1)NC(=O)[C@H](CC(C)C)NC(=O)[C@H](CCC(N)=O)NC(=O)[C@@H](NC(=O)[C@H](C)NC(=O)[C@H](CC(C)C)NC(=O)[C@@H]1CCCN1C(=O)[C@H](Cc1ccccc1)NC(=O)[C@H](CO)NC(=O)[C@H](C)NC(=O)[C@H](C)NC(=O)CNC(=O)[C@H](CO)NC(C)=O)C(C)C)C(C)C)C(=O)N[C@@H](C)C(=O)N[C@@H](CC(C)C)C(=O)N[C@@H](C)C(=O)N[C@@H](CCCNC(=N)N)C(=O)N[C@@H](CC(C)C)C(=O)N[C@@H](Cc1ccc(O)cc1)C(=O)N[C@@H](Cc1ccc(O)cc1)C(=O)N[C@@H](CCCCN)C(=O)N[C@H](C(=O)N[C@@H](CO)C(N)=O)[C@@H](C)O [JBT0662 | 2131] (Ac-SGAASFPLAVQLHVSKRSKEMALARLYYKTS-NH2)
2.51	CSCC[C@H](NC(=O)[C@H](CCC(=O)O)NC(=O)[C@H](CCCCN)NC(=O)[C@H](CO)NC(=O)[C@H](CCCNC(=N)N)NC(=O)[C@H](CCCCN)NC(=O)[C@H](CO)NC(=O)[C@@H](NC(=O)[C@H](Cc1c[nH]cn1)NC(=O)[C@H](CC(C)C)NC(=O)[C@H](C)NC(=O)[C@@H](NC(=O)[C@H](C)NC(=O)[C@H](CC(C)C)NC(=O)[C@@H]1CCCN1C(=O)[C@H](Cc1ccccc1)NC(=O)[C@H](CO)NC(=O)[C@H](C)NC(=O)[C@H](Cc1ccc(O)cc1)NC(=O)CNC(=O)[C@H](CO)NC(C)=O)C(C)C)C(C)C)C(=O)N[C@@H](C)C(=O)N[C@@H](CC(C)C)C(=O)N[C@@H](C)C(=O)N[C@@H](CCCNC(=N)N)C(=O)N[C@@H](CC(C)C)C(=O)N[C@@H](Cc1ccc(O)cc1)C(=O)N[C@@H](Cc1ccc(O)cc1)C(=O)N[C@@H](CCCCN)C(=O)N[C@H](C(=O)N[C@@H](CO)C(N)=O)[C@@H](C)O [JBT0670 | 2007] (Ac-SGYASFPLAVALHVSKRSKEMALARLYYKTS-NH2)
5.84	CSCC[C@H](NC(=O)[C@H](CCC(=O)O)NC(=O)[C@H](CCCCN)NC(=O)[C@H](CO)NC(=O)[C@H](CCCNC(=N)N)NC(=O)[C@H](CCCCN)NC(=O)[C@H](CO)NC(=O)[C@@H](NC(=O)[C@H](Cc1c[nH]cn1)NC(=O)[C@H](C)NC(=O)[C@H](CCC(N)=O)NC(=O)[C@@H](NC(=O)[C@H](C)NC(=O)[C@H](CC(C)C)NC(=O)[C@@H]1CCCN1C(=O)[C@H](Cc1ccccc1)NC(=O)[C@H](CO)NC(=O)[C@H](C)NC(=O)[C@H](Cc1ccc(O)cc1)NC(=O)CNC(=O)[C@H](CO)NC(C)=O)C(C)C)C(C)C)C(=O)N[C@@H](C)C(=O)N[C@@H](CC(C)C)C(=O)N[C@@H](C)C(=O)N[C@@H](CCCNC(=N)N)C(=O)N[C@@H](CC(C)C)C(=O)N[C@@H](Cc1ccc(O)cc1)C(=O)N[C@@H](Cc1ccc(O)cc1)C(=O)N[C@@H](CCCCN)C(=O)N[C@H](C(=O)N[C@@H](CO)C(N)=O)[C@@H](C)O [JBT0671 | 2019] (Ac-SGYASFPLAVQAHVSKRSKEMALARLYYKTS-NH2)
1.17	CSCC[C@H](NC(=O)[C@H](CCC(=O)O)NC(=O)[C@H](CCCCN)NC(=O)[C@H](CO)NC(=O)[C@H](CCCNC(=N)N)NC(=O)[C@H](CCCCN)NC(=O)[C@H](C)NC(=O)[C@@H](NC(=O)[C@H](Cc1c[nH]cn1)NC(=O)[C@H](CC(C)C)NC(=O)[C@H](CCC(N)=O)NC(=O)[C@@H](NC(=O)[C@H](C)NC(=O)[C@H](CC(C)C)NC(=O)[C@@H]1CCCN1C(=O)[C@H](Cc1ccccc1)NC(=O)[C@H](CO)NC(=O)[C@H](C)NC(=O)[C@H](Cc1ccc(O)cc1)NC(=O)CNC(=O)[C@H](CO)NC(C)=O)C(C)C)C(C)C)C(=O)N[C@@H](C)C(=O)N[C@@H](CC(C)C)C(=O)N[C@@H](C)C(=O)N[C@@H](CCCNC(=N)N)C(=O)N[C@@H](CC(C)C)C(=O)N[C@@H](Cc1ccc(O)cc1)C(=O)N[C@@H](Cc1ccc(O)cc1)C(=O)N[C@@H](CCCCN)C(=O)N[C@H](C(=O)N[C@@H](CO)C(N)=O)[C@@H](C)O [JBT0674 | 2008] (Ac-SGYASFPLAVQLHVAKRSKEMALARLYYKTS-NH2)
18.3	CSCC[C@H](NC(=O)[C@H](CCC(=O)O)NC(=O)[C@H](CCCCN)NC(=O)[C@H](CO)NC(=O)[C@H](CCCNC(=N)N)NC(=O)[C@H](C)NC(=O)[C@H](CO)NC(=O)[C@@H](NC(=O)[C@H](Cc1c[nH]cn1)NC(=O)[C@H](CC(C)C)NC(=O)[C@H](CCC(N)=O)NC(=O)[C@@H](NC(=O)[C@H](C)NC(=O)[C@H](CC(C)C)NC(=O)[C@@H]1CCCN1C(=O)[C@H](Cc1ccccc1)NC(=O)[C@H](CO)NC(=O)[C@H](C)NC(=O)[C@H](Cc1ccc(O)cc1)NC(=O)CNC(=O)[C@H](CO)NC(C)=O)C(C)C)C(C)C)C(=O)N[C@@H](C)C(=O)N[C@@H](CC(C)C)C(=O)N[C@@H](C)C(=O)N[C@@H](CCCNC(=N)N)C(=O)N[C@@H](CC(C)C)C(=O)N[C@@H](Cc1ccc(O)cc1)C(=O)N[C@@H](Cc1ccc(O)cc1)C(=O)N[C@@H](CCCCN)C(=O)N[C@H](C(=O)N[C@@H](CO)C(N)=O)[C@@H](C)O [JBT0675 | 2136] (Ac-SGYASFPLAVQLHVSARSKEMALARLYYKTS-NH2)
37.4	CSCC[C@H](NC(=O)[C@H](CCC(=O)O)NC(=O)[C@H](CCCCN)NC(=O)[C@H](CO)NC(=O)[C@H](C)NC(=O)[C@H](CCCCN)NC(=O)[C@H](CO)NC(=O)[C@@H](NC(=O)[C@H](Cc1c[nH]cn1)NC(=O)[C@H](CC(C)C)NC(=O)[C@H](CCC(N)=O)NC(=O)[C@@H](NC(=O)[C@H](C)NC(=O)[C@H](CC(C)C)NC(=O)[C@@H]1CCCN1C(=O)[C@H](Cc1ccccc1)NC(=O)[C@H](CO)NC(=O)[C@H](C)NC(=O)[C@H](Cc1ccc(O)cc1)NC(=O)CNC(=O)[C@H](CO)NC(C)=O)C(C)C)C(C)C)C(=O)N[C@@H](C)C(=O)N[C@@H](CC(C)C)C(=O)N[C@@H](C)C(=O)N[C@@H](CCCNC(=N)N)C(=O)N[C@@H](CC(C)C)C(=O)N[C@@H](Cc1ccc(O)cc1)C(=O)N[C@@H](Cc1ccc(O)cc1)C(=O)N[C@@H](CCCCN)C(=O)N[C@H](C(=O)N[C@@H](CO)C(N)=O)[C@@H](C)O [JBT0676 | 2137] (Ac-SGYASFPLAVQLHVSKASKEMALARLYYKTS-NH2)
1.91	CSCC[C@H](NC(=O)[C@H](CCC(=O)O)NC(=O)[C@H](CCCCN)NC(=O)[C@H](C)NC(=O)[C@H](CCCNC(=N)N)NC(=O)[C@H](CCCCN)NC(=O)[C@H](CO)NC(=O)[C@@H](NC(=O)[C@H](Cc1c[nH]cn1)NC(=O)[C@H](CC(C)C)NC(=O)[C@H](CCC(N)=O)NC(=O)[C@@H](NC(=O)[C@H](C)NC(=O)[C@H](CC(C)C)NC(=O)[C@@H]1CCCN1C(=O)[C@H](Cc1ccccc1)NC(=O)[C@H](CO)NC(=O)[C@H](C)NC(=O)[C@H](Cc1ccc(O)cc1)NC(=O)CNC(=O)[C@H](CO)NC(C)=O)C(C)C)C(C)C)C(=O)N[C@@H](C)C(=O)N[C@@H](CC(C)C)C(=O)N[C@@H](C)C(=O)N[C@@H](CCCNC(=N)N)C(=O)N[C@@H](CC(C)C)C(=O)N[C@@H](Cc1ccc(O)cc1)C(=O)N[C@@H](Cc1ccc(O)cc1)C(=O)N[C@@H](CCCCN)C(=O)N[C@H](C(=O)N[C@@H](CO)C(N)=O)[C@@H](C)O [JBT0677 | 2009] (Ac-SGYASFPLAVQLHVSKRAKEMALARLYYKTS-NH2)
